Data set [1] relates to common cutworm (third-instar larvae). Nature of the data set: Test 1 (Effect on Common Cutworm). Type of data set: in vivo. The conditions noted are these: Spodoptera litura. On the procedure: (§1) Compounds (a) through (g) described below were tested as comparative compounds in the same manner as the compounds of the present invention. All the tests were doubly carried out. Namely, each result was expressed by an average value of two data.
The emulsifiable concentrate of the test compound, prepared according to the method described in Formulation Example 1, was diluted with water to a specified concentration. Sweet potato leaves were sufficiently immersed in the dilution. The sweet potato leaves were dried and placed in a plastic cup having a diameter of 10 cm, and 10 third-instar larvae of common cutworm were set free in each cup. 48 hours after, the numbers of killed and living larvae were counted and the mortality was calculated.

In another data set the test system is yearling carps. Description: Test 5 (Fish Toxicity). Type of data set: in vivo, carp. The method, then:
as §1
A water tank having a width of 60 cm, a length of 30 cm and a height of 40 cm was filled with water, and 10 yearling carps having a body length of about 5 cm were set free in the tank and adapted to the environment in the tank. An acetone solution of a test compound was applied into water so as to become a concentration of 1 or 0.1 ppm in water by adding said acetone solution at a rate of one part by volume per 100 parts by volume of water. 48 hours after, the number of killed and living carps was counted and the effect of a test compound on carps was examined.

The test system of data set [2] is green rice leafhopper (female adults). Nature of the data set: Test 2 (Effect on Green Rice Leafhopper). The class given is in vivo. The settings on record: Nephotettix cincticeps, 48 hours, female adults, read-out: Mortality (%). On the procedure: as §1
Four or five seedlings of paddy rice with three leaves were bundled, and thereon the same dilution of the emulsifiable concentrate as used in Test 1 was sprayed in an amount of 3 ml. The bundle was dried and covered with a metal net cylinder, and 10 female adults of green rice leafhopper were set free in the cylinder. 48 hours after, the number of killed adults was counted.

Setting [3] is: 20 ppm, 48 hours, third-instar larvae, read-out: Mortality (%).
[4] abbreviates: 100 ppm, 48 hours, third-instar larvae, read-out: Mortality (%).

The source of these data is patent US4814340A, “1,4-diaryl alkane derivatives having insecticidal and acaricidal activity” (priority 1982, dated 1989).

Structures are written as SMILES. Where a name gives a salt, the structure may show the parent alone. Read-outs that look alike come from different tables or passages of the source.

Broadly, the mortality is the share of the test organisms that died. `CNC(=O)ON=C(C)SC` [(d), Methomyl, reference compound]: in data set [1] (48 h), the mortality at 20 ppm came to 80% and the mortality at 100 ppm worked out at 100%.

Consider `Oc1c(Cl)c(Cl)c(Cl)c(Cl)c1Cl` [(f), PCP sodium salt, reference compound], for which the “Mortality(%) 48 Hours After” value in the data set on yearling carps (0.1 ppm in water) is listed as 55%; in the data set on yearling carps (1 ppm in water), 100%.

On to `CC(C)(CCCc1cccc(Oc2ccccc2)c1)c1cccc(C(F)(F)F)c1` [Compound 2, 1-(3-phenoxyphenyl)-4-(3-trifluoromethylphenyl)-4-methylpentane], for which, in data set [2], the mortality at 20 ppm was 80% and the mortality at 100 ppm was found to be 100%.

With `CCOc1ccc(C(C)(C)CCCc2ccc(F)c(Oc3ccccc3)c2)cc1` [Compound 3, 1-(3-phenoxy-4-fluorophenyl)-4-(4-ethoxyphenyl)-4-methylpentane], the mortality at 20 ppm in data set [2] and in data set [1] (setting [3]) was 100% each time. Moreover, the mortality at 100 ppm in data set [2] and in data set [1] (setting [4]) was 100% in each case.

Consider `COc1ccc(C(C)(C)CCCc2cccc(Oc3ccccc3)c2)cc1` [Compound 5, 1-(3-phenoxyphenyl)-4-(4-methoxyphenyl)-4-methylpentane], for which, in data set [2], the mortality at 20 ppm stood at 100% and the mortality at 100 ppm came to 100%. In addition, in the data set with yearling carps (0.1 ppm in water), the “Mortality(%) 48 Hours After” value was 0%. For the same compound, in the data set on yearling carps (1 ppm in water), the “Mortality(%) 48 Hours After” value is 0%.

Turning to `CCC(C)(CCCc1cccc(Oc2ccccc2)c1)c1ccc(Cl)cc1` (stereo not drawn) [Compound 7, 1-(3-phenoxyphenyl)-4-(4-chlorophenyl)-4-methylhexane], in data set [2], the mortality at 20 ppm amounted to 65% and the mortality at 100 ppm was 100%.

As to `CCOc1ccc(C(C)(C)CCCc2cccc(C(=O)c3ccccc3)c2)cc1Br` [Compound 13, 1-(3-benzoylphenyl)-4-(3-bromo-4-ethoxyphenyl)-4-methylpentane], in data set [2], the mortality at 20 ppm worked out at 40% and the mortality at 100 ppm stood at 100%.

Take `CCOc1ccc(C(C)(C)CCCc2cccc(Cc3ccccc3)c2)cc1` [Compound 14, 1-(3-benzylphenyl)-4-(4-ethoxyphenyl)-4-methylpentane]: in data set [2], the mortality at 20 ppm was 50% and the mortality at 100 ppm was 90%.

For `CCOc1ccc(C(C)(C)CCC(C#N)c2cccc(Oc3ccccc3)c2)cc1` (stereo not drawn) [Compound 15, 1-(3-Phenoxyphenyl)-1-cyano-4-(4-ethoxyphenyl)-4-methylpentane], in data set [2], the mortality at 20 ppm turned out to be 70% and the mortality at 100 ppm came out at 95%.

Regarding `CC(C)(CCCc1cccc(Oc2ccccc2)c1)c1ccc2ccccc2c1` [Compound 18, 1-(3-Phenoxyphenyl)-4-(2-naphthyl)-4-methylpentane], in data set [2], the mortality at 20 ppm came to 100% and the mortality at 100 ppm came out at 100%. Further, the “Mortality(%) 48 Hours After” value in the data set on yearling carps (0.1 ppm in water) is 0%. Moreover, in the data set on yearling carps (1 ppm in water), the “Mortality(%) 48 Hours After” value was 0%.

In the case of `CC(C)(CCCc1cccc(Oc2ccccc2)c1)c1cccc(Cl)c1` [Compound 21], in data set [2], the mortality at 20 ppm is 100% and the mortality at 100 ppm amounted to 100%. Besides, the “Mortality(%) 48 Hours After” value with yearling carps (0.1 ppm in water) is recorded as 0%. Further, the “Mortality(%) 48 Hours After” value in the data set with yearling carps (1 ppm in water) was 0%.

In the case of `COc1ccc(C(C)(C)CCCc2cccc(Oc3ccccc3)c2)cc1OC` [Compound 22], in data set [2], the mortality at 20 ppm came to 50% and the mortality at 100 ppm came out at 95%.

On to `CCC(CCCc1cccc(Oc2ccccc2)c1)c1ccc(Cl)cc1` (stereo not drawn) [Compound 23], for which, in data set [2], the mortality at 20 ppm amounted to 75% and the mortality at 100 ppm is 100%. The “Mortality(%) 48 Hours After” value in the data set with yearling carps (0.1 ppm in water) is on record as 0%. Further, the “Mortality(%) 48 Hours After” value with yearling carps (1 ppm in water) was 0%.

With `CC(C)(CCCc1cccc(Oc2ccccc2)c1)c1ccc(OC(F)(F)C(Cl)Cl)cc1` [Compound 25], in data set [2], the mortality at 20 ppm worked out at 90% and the mortality at 100 ppm turned out to be 100%.

On to `CC(C)(CCCc1cccc(Oc2ccccc2)c1)c1ccc(Cl)c(Cl)c1` [Compound 26], for which, in data set [2], the mortality at 20 ppm was 50% and the mortality at 100 ppm came to 100%. Further, the “Mortality(%) 48 Hours After” value with yearling carps (0.1 ppm in water) is given as 0%. In addition, the “Mortality(%) 48 Hours After” value with yearling carps (1 ppm in water) worked out at 0%.

For the compound `CCOc1ccc(C(C)(C)CCCc2cccc(Oc3ccccc3)c2)cc1OCC` [Compound 28], in data set [2], the mortality at 20 ppm was 80% and the mortality at 100 ppm was determined as 100%.

On to `CCOc1ccc(C(C)(C)CCCc2cccc(Sc3ccccc3)c2)cc1` [Compound 30], for which, in data set [2], the mortality at 20 ppm was found to be 70% and the mortality at 100 ppm turned out to be 100%.

On to `CC(C)(CCCc1cccc(Oc2ccccc2)c1)c1ccc(OC(F)F)cc1` [Compound 32], for which the mortality at 20 ppm in data set [2] and in data set [1] (setting [3]) was 100% throughout. Moreover, the mortality at 100 ppm in data set [2] and in data set [1] (setting [4]) was 100% each time.

On to `CCCOc1ccc(C(C)(C)CCCc2cccc(Oc3ccccc3)c2)cc1` [Compound 33], for which, in data set [2], the mortality at 20 ppm amounted to 100% and the mortality at 100 ppm worked out at 100%. Also, the “Mortality(%) 48 Hours After” value in the data set on yearling carps (0.1 ppm in water) is 0%. The “Mortality(%) 48 Hours After” value in the data set on yearling carps (1 ppm in water) stood at 0%.

Consider `CCOc1ccc(C(C)(C)CCCc2cccc(C(=O)c3ccccc3)c2)cc1` [Compound 34], for which, in data set [2], the mortality at 20 ppm was 50% and the mortality at 100 ppm came to 100%.

Take `CCOc1ccc(C(C)(C)CCCc2ccc(F)c(Sc3ccccc3)c2)cc1` [Compound 36]: in data set [2], the mortality at 20 ppm was 100% and the mortality at 100 ppm amounted to 100%.

As for `CC(C)(CCCc1cccc(Oc2ccccc2)c1)c1ccc(OC(F)=CCl)cc1` [Compound 37], the mortality at 20 ppm in data set [1] (setting [3]) was 80%. Moreover, the mortality at 100 ppm in data set [1] (setting [4]) was 100%.

In the case of `CCOc1ccc(C(C)(C)CCCc2cccc(Oc3ccc(Cl)cc3)c2)cc1` [Compound 39], in data set [2], the mortality at 20 ppm came to 90% and the mortality at 100 ppm was found to be 100%.

With `CCOc1ccc(C(C)(C)CCCc2cccc(Oc3ccccc3F)c2)cc1` [Compound 42], in data set [2], the mortality at 20 ppm worked out at 100% and the mortality at 100 ppm came to 100%.

Turning to `C#CCOc1ccc(C(C)(C)CCCc2cccc(Oc3ccccc3)c2)cc1` [Compound 45], the mortality at 20 ppm in data set [2] and in data set [1] (setting [3]) was 80% in each case. The mortality at 100 ppm in data set [2] and in data set [1] (setting [4]) was 100% throughout.

On to `CC(C)(CCCc1cccc(Oc2ccccc2)c1)c1ccc(Oc2ccccc2)cc1` [Compound 46], for which the results for the mortality at 20 ppm in data set [2] and in data set [1] (setting [3]) were 100% and 85%, respectively. Also, the mortality at 100 ppm in data set [2] and in data set [1] (setting [4]) was 100% each time.

For the compound `CC(C)(CCCc1cccc(Oc2ccccc2)c1)c1ccc(Br)cc1` [Compound 47], in data set [2], the mortality at 20 ppm was 75% and the mortality at 100 ppm was determined as 100%.

On to `CC(C)C(C)(CCCc1cccc(Oc2ccccc2)c1)c1ccc(Cl)cc1` (stereo not drawn) [Compound 49], for which, in data set [2], the mortality at 20 ppm is 60% and the mortality at 100 ppm is 100%.

`Clc1ccc(C2(CCCc3cccc(Oc4ccccc4)c3)CC2(Cl)Cl)cc1` (stereo not drawn) [Compound 50, 1-(3-Phenoxyphenyl)-3-[1-(4-chlorophenyl)-2,2-dichlorocyclopropyl]-propane]: in data set [2], the mortality at 20 ppm was 50% and the mortality at 100 ppm is 100%.

As to `C#CC(CCC(C)(C)c1ccc(OCC)cc1)c1ccc(F)c(Oc2ccccc2)c1` (stereo not drawn) [Compound 51, 1-(3-Phenoxy-4-fluorophenyl)-1-ethynyl-4-(4-ethoxyphenyl)-4-methylpentane], in data set [2], the mortality at 20 ppm was 60% and the mortality at 100 ppm was 90%.

`CC(C)(CCCc1cccc(Oc2ccccc2)c1)c1ccc(C#N)cc1` [Compound 58, 1-(3-Phenoxyphenyl)-4-(4-cyanophenyl)-4-methylpentane]: the mortality at 20 ppm in data set [2] amounted to 100%; in data set [1] (setting [3]), 80%. Moreover, the mortality at 100 ppm in data set [2] and in data set [1] (setting [4]) was 100% in each case.

Take `CC(C)=Cc1ccc(C(C)(C)CCCc2cccc(Oc3ccccc3)c2)cc1` [Compound 59]: in data set [2], the mortality at 20 ppm was found to be 70% and the mortality at 100 ppm stood at 100%.

In the case of `CC(C)(CCC(C#N)c1ccc(F)c(Oc2ccccc2)c1)c1ccc(Cl)cc1` (stereo not drawn) [Compound 62, 1-(3-Phenoxy-4-fluorophenyl)-1-cyano-4-(4-chlorophenyl)-4-methylpentane], in data set [2], the mortality at 20 ppm worked out at 45% and the mortality at 100 ppm is 100%.

`CC(C)(CCCc1cccc(Oc2ccccc2)c1)c1ccc(C=C(Cl)Cl)cc1` [Compound 63]: the mortality at 20 ppm came out at 100% in data set [2] and 70% in data set [1] (setting [3]). Moreover, the mortality at 100 ppm in data set [2] and in data set [1] (setting [4]) was 100% each time.

Take `CC(C)(CCCc1cccc(Oc2ccccc2)c1)c1ccc(C(=O)OCCF)cc1` [Compound 68]: in data set [2], the mortality at 20 ppm came to 40% and the mortality at 100 ppm came out at 80%.

On to `CC(C)(CCCc1cccc(Oc2ccccc2)c1)c1ccc(C(=O)OC(F)(F)C(F)F)cc1` [Compound 69], for which, in data set [2], the mortality at 20 ppm turned out to be 75% and the mortality at 100 ppm amounted to 100%.
